The results in this text go back to US8178506B2, “Oligomeric compounds and compositions for use in modulation of small non-coding RNAs” (Regulus Therapeutics Inc., priority 2003, dated 2012).

In the oligonucleotide strings, read from the 5' end, every base follows the letter of its sugar. An asterisk marks phosphorothioate; unmarked linkages are phosphodiester. Other units and linkages are bracketed, terminal groups are in braces. A string of capitals states the bases alone. e = 2'-O-(2-methoxyethyl) (MOE); [5mC] = 5-methylcytosine

Data set [1] relates to mir-21 miRNA. The data set can be described thus: pGL3-mir-21 sensor luciferase assay in HeLa cells. It is filed as cell-based, human. The essentials: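 HeLa cells were transiently transfected with pGL3-Control carrying a mir-21-complementary site in the luciferase 3′UTR, which endogenous mir-21 silences. 2′-MOE oligomeric compounds were given at 10 or 50 nM, or at 1.9, 5.5, 16.7 and 50 nM for dose response. Luciferase was normalized to pRL-CMV and expressed as percent of the plasmid-only untreated control.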

The test system of data set [2] is mir-143 miRNA. The data set can be described thus: Northern blot of mature mir-143 in kidney of ob/ob mice. Type of data set: in vivo, mouse. Conditions: twice weekly at 25 mg/kg, saline = 100%. How it is done: In addition, Northern blot analyses were performed to quantitate the expression of mature mir-143 in kidney samples of ob/ob mice treated with oligomeric compounds of the present invention. The mir-143 specific DNA oligonucleotide probe (SEQ ID NO: 319) described above was used to detect expression levels of the mir-143 miRNA in ob/ob mice treated (twice weekly at 25 mg/kg) with ISIS Numbers 327901, the uniform 2′-MOE oligomeric compound, or ISIS Number 340927, the 5-10-7 gapmer compound, both targeted to mir-143, versus saline treated animals or animals treated with ISIS 342672 (SEQ ID NO: 789), a uniform 2′-MOE scrambled negative control oligomeric compound. Expression levels were normalized against the U6 RNA and the expression levels of saline treated animals were set at 100%. […] In kidney samples from mice treated with the gapmer oligomeric compound targeting mir-143, ISIS Number 340927, a 23% reduction in in vivo expression levels of the mature mir-143 miRNA was observed.

Setting [3] is: Table 44, pGL3-mir-21 sensor-expressing HeLa cells, 10 nM.
[4] abbreviates: Table 44, pGL3-mir-21 sensor-expressing HeLa cells, 50 nM.

Consider “327901 (antisense eT*eG*eA*eG*e[5mC]*eT*eA*e[5mC]*eA*eG*eT*eG*e[5mC]*eT*eT*e[5mC]*eA*eT*e[5mC]*eT*e[5mC]*eA) [compound 327901]”, for which the results for the “luciferase expression % UTC” value in data set [1] (setting [3]) and in data set [1] (setting [4]) were 74.2 % UTC and 83.1 % UTC, respectively.
Take “TGAGCTACAGTGCTTCATCTCA [ISIS 340927] (chemistry not given here) [5-10-7 2′-MOE gapmer PS; targets mature mir-143]”: in data set [2], the “decrease in in vivo expression levels of the mature mir-143 miRNA” value amounted to 23%.
In the case of “327917 (antisense eT*e[5mC]*eA*eA*e[5mC]*eA*eT*e[5mC]*eA*eG*eT*e[5mC]*eT*eG*eA*eT*eA*eA*eG*e[5mC]*eT*eA) [compound 327917]”, the “luciferase expression % UTC” value in data set [1] (setting [3]) worked out at 1037.6 % UTC; in data set [1] (setting [4]), 847.5 % UTC; in data set [1] (Table 50, pGL3-mir-21 sensor-expressing HeLa cells, 1.9 nM, normalized to pRL-CMV) it was 522 % UTC; in data set [1] (Table 50, pGL3-mir-21 sensor-expressing HeLa cells, 5.5 nM, normalized to pRL-CMV), 1293 % UTC; in data set [1] (Table 50, pGL3-mir-21 sensor-expressing HeLa cells, 16.7 nM, normalized to pRL-CMV), 2470 % UTC; in data set [1] (Table 50, pGL3-mir-21 sensor-expressing HeLa cells, 50 nM, normalized to pRL-CMV), 4534 % UTC.
Regarding “TGAGCTACAGTGCTTCATCTCA [ISIS 327901] (chemistry not given here) [uniform 2′-MOE PS; targets mir-143]”, the “decrease in in vivo expression levels of the mature mir-143 miRNA” value in data set [2] is on record as about 40%.
